Assay results taken from patent US10138510B2, “Dual labeling methods for measuring cellular proliferation” (LIFE TECHNOLOGIES CORPORATION, priority 2008, dated 2018).

Legend:
Assay type in all cases: cell-based
[1] = tested on: newly synthesized DNA of cells; test: Simultaneous EdU and BrdU pulse, incorporation into DNA detected by flow cytometry; settings: for signal detected after simultaneous pulse: simultaneous pulse of EdU 20 μM and BrdU 10 μM, FIG. 3B
Source text: FIG. 3A-1, FIG. 3A-2 and FIG. 3A-3 present a series of graphs showing populations of cells treated with a first pulse label of EdU (10 μm) and a second pulse label of BrdU (10 μm) as detected by flow cytometry. The first graph (FIG. 3A-1) is divided into four quadrants with the first quadrant (Q1) located in the upper left hand corner, the second quadrant (Q2) located in the upper right hand corner, the third quadrant (Q3) located in the lower left hand corner, and the fourth quadrant (Q4) located in the lower right hand corner. Populations of cells in quadrant Q3 (lower left) are negative for both EdU (first pulse) and BrdU (second pulse). Populations of cells in quadrant Q2 (upper right) are positive for both EdU (first pulse) and BrdU (second pulse). FIG. 3A-2 is a graph of EdU vs. DNA cell cycle with gating P5>P1. […] FIG. 3B presents a graph showing populations of cells treated with simultaneous pulse of EdU at a concentration of 20 μM and BrdU at a concentration of 10 μM as detected by flow cytometry. The graph is divided into four quadrants with the first quadrant (Q1) located in the upper left hand corner, the second quadrant (Q2) located in the upper right hand corner, the third quadrant (Q3) located in the lower left hand corner, and the fourth quadrant (Q4) located in the lower right hand corner. Populations of cells in quadrant Q3 (lower left) are negative for both EdU and BrdU. Populations of cells in quadrant Q2 (upper right) are positive for both EdU and BrdU.
FIG. 5A, FIG. 5B, FIG. 5C and FIG. 5D present a series of graphs showing that when cells are treated with EdU and BrdU simultaneously, only a population of DNA labeled with BrdU is detected by flow cytometry. […] The third and fourth graphs (FIGS. 5C and 5D, respectively) show the dual parameter plot of fluorescent nucleotide label vs. DNA cell cycle treated with EdU and BrdU simultaneously. Only BrdU was incorporated into cells treated simultaneously with EdU and BrdU, as shown in the third and fourth graphs. […]

[2] = tested on: Jurkat T-cell lymphocyte cells; test: Dual pulse EdU/BrdU labeling of cellular proliferation after colchicine cell cycle block, flow cytometry
Experimental: A standard method of preparing cultured cells for the measurement of newly synthesized DNA (cellular proliferation) is set up according to known conditions for cells to be actively growing by providing the proper media and nutrient requirements. In the present example, Jurkat T-cell lymphocyte cell cultures were diluted one to four to a density of 2×10^5 cells/ml. The cultures were treated with a cell cycle blocking agent, colchicine, which stops proliferation at the G2M stage of the cell cycle, at concentrations of 0, 32 nM, 75 nM, 125 nM, 250 nM, 500 nM and 1 μM for 18 hours. To each condition, the first nucleoside analog, EdU, was then added at 10 μM, a concentration appropriate for incorporation in the DNA of cells undergoing DNA synthesis. The cells were grown in the presence of EdU for one hour. The cells were then centrifuged to pellet the cells and remove the media with blocking agent, and cells had replacement of fresh media. The cell cultures were allowed to recover for two hours before an appropriate amount of the second nucleoside analog, BrdU, was added at a 10 μM concentration, and the cells were grown for one hour. The cells were then harvested, washed, fixed with 70% ice-cold ETOH and stored at 4° C. until use. The cells were then washed and resuspended in 4M HCL for 20 minutes at room temperature. A phosphate/critric acid buffer was added, and the cells washed twice and resuspended in 0.1% TritonX/1% BSA/PBS at 1×10^7/ml. Then, labeling of the EdU was performed by adding click chemistry based reagents, including a solution comprised of CuSO4 in Tris-buffered saline and Alexa Fluor® 647-azide (650 nm excitation maxima/670 nm emission maxima) (Molecular Probes™/Invitrogen™, Carlsbad, Calif.). The cells were then washed with 0.1% TritonX/1% BSA/PBS. […]
A series of result graphs labeled FIGS. 12-1A, 12-1B, 12-1C, 12-1D, 12-1E, 12-2F, 12-2G, 12-2H, 12-2I and 12-2J show populations of cells treated with a first pulse label of EdU (20 μM) and a second pulse label of BrdU (10 μm) as detected by flow cytometry. […]

[3] = tested on: TF-1a human erythroblast cells; test: Dual pulse EdU/BrdU labeling of cellular proliferation with varying GM-CSF, flow cytometry
Experimental: A standard method of preparing cultured cells for the measurement of newly synthesized DNA (cellular proliferation) is set up according to known conditions for cells to be actively growing by providing the proper media and nutrient requirements. In the present example, TF-1a human erythroblast cell cultures were diluted one to four to a density of 2×10^5 cells/ml. Culture media contains varying amounts of GM-CSF, or granulocyte-macrophage colony-stimulating factor, at amounts equal to full (2 ng/ml) or ¼ (0.5 ng/ml) recommended concentration of GM-CSF, and no GM-CSF. After these cells had been growing 18 hours, the first nucleoside analog, EdU, was added at 20 μM, a concentration appropriate for incorporation in the DNA of cells undergoing DNA synthesis. The cells were grown in the presence of EdU for three hours. After initial period of growth and without the removal of EdU through the washing of the cells in fresh media, an appropriate amount of the competitive nucleoside analog, BrdU, was added at a 10 μM concentration, and GM-CSF was added at the same time as the BrdU in amounts to equal the full amount recommended for GM-CSF concentration of 2 ng/ml or kept at the same initial concentration of GM-CSF. The cells were grown for six hours. The cells were then harvested, washed, fixed with 70% ice-cold ETOH and stored at 4° C. until use. The cells were then washed and resuspended in 4M HCL for 20 minutes at room temperature. A phosphate/critric acid buffer was added, and the cells washed twice and resuspended in 0.1% TritonX/1% BSA/PBS at 1×10^7/ml. Then, labeling of the EdU was performed by adding click chemistry based reagents, including a solution comprised of CuSO4 in Tris-buffered saline and Alexa Fluor® 647-azide (650 nm excitation maxima/670 nm emission maxima) (Molecular Probes™/Invitrogen™, Carlsbad, Calif.). The cells were then washed with 0.1% TritonX/1% BSA/PBS. After this, labeling of the BrdU was performed using the anti-BrdU antibody FITC conjugate (494 nm excitation maxima/518 nm emission maxima) (Exalpha Biologicals, Inc., Maynard Calif.). To detect DNA content, a nucleic acid dye, DAPI (358 nm excitation maxima/461 nm emission maxima) (Molecular Probes™/Invitrogen™, Carlsbad, Calif.) was added. Detection of the three labels was performed by flow cytometry. To detect the BrdU label, 488 nm excitation was used, with a 530/30 nm bandpass. To detect the EdU label, 633 nm excitation was used, with a 660/20 nm bandpass. To detect DNA content, 355 nm excitation was used, with a 450/50 nm bandpass.

[4] = GM-CSF 0.5 ng/ml with EdU pulse, 0.5 ng/ml with BrdU pulse
[5] = GM-CSF 0.5 ng/ml with EdU pulse, 2 ng/ml with BrdU pulse
[6] = GM-CSF 2 ng/ml (control) with EdU pulse, 2 ng/ml (control) with BrdU pulse, EdU 20 μM 3 h, BrdU 10 μM 6 h
[7] = no GM-CSF with EdU pulse, GM-CSF 2 ng/ml with BrdU pulse

O=c1[nH]c(=O)n([C@H]2C[C@H](O)[C@@H](CO)O2)cc1Br [BrdU, 5-bromo 2′-deoxyuridine]
incorporation into DNA in the presence of both nucleoside analogs ([1]; EdU and BrdU added simultaneously, Example 3, FIGS. 5A-5D): only the BrdU analog is incorporated into the DNA
signal detected after simultaneous pulse [1]: only positive signal detected from the BrdU

C#Cc1cn([C@H]2C[C@H](O)[C@@H](CO)O2)c(=O)[nH]c1=O [EdU, 5-ethynyl 2′-deoxyuridine]
signal detected after simultaneous pulse [1]: no signal detected

COc1cc2c(c(OC)c1OC)-c1ccc(OC)c(=O)cc1[C@@H](NC(C)=O)CC2 [colchicine]
proliferation (EdU and BrdU positive events) vs control ([2]; 32 nM colchicine for 18 hours before the first pulse, FIGS. 12-2F to 12-2J): decreased proliferation
proliferation with both pulses of EdU and BrdU ([2]; all colchicine concentrations (32 nM to 1 μM), 18 hours, FIG. 11): decreased proliferation
recovery of proliferation after removal of colchicine (second pulse of BrdU) ([2]; any colchicine concentration, two hours recovery in fresh media): no recovery

GM-CSF: granulocyte-macrophage colony-stimulating factor, growth factor in TF-1a culture media
proliferative recovery of cells ([3]; 0.5 ng/ml GM-CSF, addition of GM-CSF to 2 ng/ml with the BrdU pulse): does not show any proliferative recovery
% BrdU Pos [3, 4]: 66.3%
% EdU Pos [3, 4]: 57%
% BrdU Pos [3, 5]: 65.1%
% EdU Pos [3, 5]: 57.5%
% BrdU Pos [3, 6]: 72.2%
% EdU Pos [3, 6]: 53.9%
proliferation over control ([3]; dual pulse with 0.5 ng/ml GM-CSF vs 2 ng/ml control): only a slight decrease of proliferation over control
% BrdU Pos [3, 7]: 53%
% EdU Pos [3, 7]: 42.3%
proliferative recovery of cells (BrdU positivity) ([3]; no GM-CSF with EdU pulse, GM-CSF added with just the BrdU pulse): some proliferative recovery
